Experimental data published in patent US8207330B2, “Two-photon absorption material and application thereof” (Ricoh Company, Ltd., priority 2008, dated 2012).

Experiment: Two-photon absorption cross-sectional area, Z scan method, Examples C
Format: physicochemical
Settings: tetrahydrofuran solution, wavelength 800 nm
Method: Compound 1-7 (porphyrin derivative) of the present invention was dissolved in tetrahydrofuran, and the resultant tetrahydrofuran solution was measured for its two-photon absorption cross-sectional area according to the below-described evaluation method therefor.
The following Comparative Compound 1 was dissolved in tetrahydrofuran, and the resultant tetrahydrofuran solution was measured for its two-photon absorption cross-sectional area according to the below-described evaluation method therefor.
The following Comparative Compound 2, having a typical porphyrin structure, was dissolved in tetrahydrofuran, and the resultant tetrahydrofuran solution was measured for its two-photon absorption cross-sectional area in a similar manner.
The following Comparative Compound 3, having a conventional, typical diazaporphyrin structure, was dissolved in tetrahydrofuran, and the resultant tetrahydrofuran solution was measured for its two-photon absorption cross-sectional area.
[drawing 71] [Method for Measuring Two-Photon Absorption Cross-Sectional Area] […]
A quartz cell filled with each sample solution was placed in a light path through which a focused laser beam was passed. […] The sample solution was measured for its transmittance, and the thus-obtained value and the following theoretical equation (I) were used to determine a nonlinear absorption coefficient of the sample. […]

SMILES | Two-photon absorption cross-sectional area
COc1ccc(-c2cc(C3=C(c4cc(-c5ccc(OC)cc5)sc4OC)C(F)(F)C(F)(F)C3(F)F)c(OC)s2)cc1 [Comp. Ex. C-1] | 15 GM

Experiment: Two-photon absorption cross-sectional area, Z scan method, Examples A (800 nm)
Format: physicochemical
Settings: tetrahydrofuran solution, femtosecond titanium sapphire laser
Method: Each of the above-given compounds Nos. 1, 2, 4, 5, 6, 7, 10, 11, 15, 16, 17, 20, 24, 25, 27 and 28 of the present invention was dissolved in tetrahydrofuran, and the resultant solution was measured for its two-photon absorption cross-sectional area according to the below-described evaluation method therefor.
The following compound (29) was dissolved in tetrahydrofuran, and the resultant solution was measured for its two-photon absorption cross-sectional area according to the below-described evaluation method therefor.
The following compound (30) was dissolved in tetrahydrofuran, and the resultant solution was measured for its two-photon absorption cross-sectional area according to the below-described evaluation method therefor.
[drawing 66] [Method for Measuring Two-Photon Absorption Cross-Sectional Area]
(§1) FIG. 8 schematically illustrates a system of the method.
(§2) Measuring light source: femtosecond titanium sapphire laser
(§3) Repetition frequency: 80 MHz
(§4) Measuring method: Z scan method
Wavelength of light source: 800 nm
(§5) Inner diameter of cuvette: 10 mm
(§6) Light power for measurement: about 500 mW
(§7) Collection diameter: 40 μm to 50 μm
(§8) A quartz cell filled with each sample solution was placed in a light path through which a focused laser beam was passed. Then, the cell was moved along the light path for Z-scan measurement.
The sample solution was measured for its transmittance, and the thus-obtained value and the following theoretical equation (1) were used to determine a nonlinear absorption coefficient of the sample. T=[ln(1+I0L0β)]/I0L0β (1) where T denotes a transmittance (%), I0 denotes an excited light density [GW/cm^2], L0 denotes a sample cell length [cm], and β denotes a nonlinear absorption coefficient [cm/GW].
The thus-determined nonlinear absorption coefficient and the following equation (2) were used to calculate a two-photon absorption cross-sectional area σ. Note that the unit of σ is GM (1 GM=1×10^−50 cm^4·s·photon^−1). σ=1,000×hvβ/[…] (2)
(§9) where h denotes the Planck's constant [J·s], v denotes a frequency of an incident laser beam [s^−1], NA denotes the Avogadoro's number, and C denotes a concentration of a solution [mol/L].

Two-photon absorption cross-sectional area | SMILES
870 GM | CCC1=C(CC)c2nc1c(Br)c1[nH]c(c(CC)c1CC)c(-c1ccc([N+](=O)[O-])cc1)c1nc(c(-c3ccc4c(c3)C(C)(C)c3cc(-c5c6nc(c(-c7ccc([N+](=O)[O-])cc7)c7[nH]c(c(Br)c8nc(c(-c9ccc([N+](=O)[O-])cc9)c9[nH]c5c(CC)c9CC)C(CC)=C8CC)c(CC)c7CC)C(CC)=C6CC)ccc3-4)c3[nH]c(c(CC)c3CC)c2-c2ccc([N+](=O)[O-])cc2)C(CC)=C1CC [compound 27]
1,480 GM | CC1=C(C)c2nc1c(-c1ccc(C#N)cc1)c1[nH]c(c(C)c1C)c(-c1ccc(/C=C/c3ccc(N(c4ccccc4)c4ccc(C)cc4)cc3)cc1)c1nc(c(-c3ccc(C#N)cc3)c3[nH]c(c(C)c3C)c2-c2ccc(/C=C/c3ccc(N(c4ccccc4)c4ccc(C)cc4)cc3)cc2)C(C)=C1C [compound 5]
590 GM | CCC1=C(CC)C2=C(Br)c3c(CC)c(CC)c4[n]3[Zn][n]3c(c(CC)c(CC)c3=C(c3ccc5c(c3)C(C)(C)c3cc(C6=C7N=C(C(CC)=C7CC)C(c7ccc([N+](=O)[O-])cc7)=c7c(CC)c(CC)c8[n]7[Zn][n]7c(c(CC)c(CC)c76)C(c6ccc([N+](=O)[O-])cc6)=C6N=C(C(CC)=C6CC)C=8Br)ccc3-5)C3=NC(=C4c4ccc([N+](=O)[O-])cc4)C(CC)=C3CC)=C(c3ccc([N+](=O)[O-])cc3)C1=N2 [compound 28]
730 GM | Cc1ccc(N(c2ccc(C)cc2)c2ccc(/C=C/c3ccc(C4=c5ccc6[n]5[Ni][n]5c(ccc5C(c5cccc(C7OCC(C)(C)CO7)c5)=C5C=CC4=N5)C(Cl)=C4C=CC(=N4)C=6c4cccc(C5OCC(C)(C)CO5)c4)cc3)cc2)cc1 [compound 6]
1,020 GM | CCCCCCc1ccc(N(c2ccc(-c3c4nc(c(-c5c(C)cc(C)cc5C)c5[nH]c(cc6nc(c(-c7c(C)cc(C)cc7C)c7[nH]c3c(CC)c7C)C(C)=C6CC)c(CC)c5C)C(C)=C4CC)cc2)c2ccc(-c3c4nc(c(-c5c(C)cc(C)cc5C)c5[nH]c(cc6nc(c(-c7c(C)cc(C)cc7C)c7[nH]c3c(CC)c7C)C(C)=C6CC)c(CC)c5C)C(C)=C4CC)cc2)cc1 [compound 25]

SMILES | Two-photon absorption cross-sectional area
COc1ccc(-c2cc(C3=C(c4cc(-c5ccc(OC)cc5)sc4OC)C(F)(F)C(F)(F)C3(F)F)c(OC)s2)cc1 [compound 30, reference compound] | 15 GM

Experiment: Two-photon absorption cross-sectional area, Z scan method, Examples B
Format: physicochemical
Settings: tetrahydrofuran solution, femtosecond laser, 780 nm to 960 nm (710 nm to 990 nm)
Method: Each of Compounds (1), (2), (57), (58), (59), (60), (3), (4), (61), (62), (25), (26), (63), (64), (65), (66), (45), (67), (68), (69), (70), (71), (72), (5), (9), (13), (19), (27), (31), (32), (34), (36), (39), (44), (53) and (55) was dissolved in tetrahydrofuran, and the resultant tetrahydrofuran solution was measured for its two-photon absorption cross-sectional area according to the below-described evaluation method therefor.
This measurement was performed under the following conditions:
Sample concentration: 10^−2 mol to 10^−5 mol (this range covering optimal concentrations of the samples (at which measurements are easily performed));
Light path length of cell: 10 mm (corresponding to the inner diameter of cuvette);
Light: variable femtosecond laser having a wavelength of 710 nm to 990 nm; and
Light power: 10 mW to 800 mW.
The following compound (73) was dissolved in tetrahydrofuran, and the resultant solution was measured for its two-photon absorption cross-sectional area according to the below-described evaluation method therefor.
The following compound (74) was dissolved in tetrahydrofuran, and the resultant solution was measured for its two-photon absorption cross-sectional area according to the below-described evaluation method therefor.
[drawing 68] [Method for Measuring Two-Photon Absorption Cross-Sectional Area]
as §1, §2, §3, §4, §5, §6, §7, §8
The sample solution was measured for its transmittance, and the thus-obtained value and the following theoretical equation (I) were used to determine a nonlinear absorption coefficient of the sample. T=[ln(1+I0L0β)]/I0L0β (I)
where T denotes a transmittance (%), I0 denotes an excited light density [GW/cm^2], L0 denotes a sample cell length [cm], and β denotes a nonlinear absorption coefficient [cm/GW].
The thus-determined nonlinear absorption coefficient and the following equation (ii) were used to calculate a two-photon absorption cross-sectional area σ. Note that the unit of σ is GM (1 GM=1×10^−50 cm^4·s·photon^−1). σ=1,000×hvβ/[…] (ii)
as §9

Two-photon absorption cross-sectional area | SMILES
1,120 GM | CCCCCCc1ccc(N(c2ccc(C3=C4N=C(C(C)=C4CC)C(c4c(C)cc(C)cc4C)=c4c(C)c(CC)c5[n]4[Zn][n]4c(c(C)c(CC)c43)C(c3c(C)cc(C)cc3C)=C3N=C(C=5)C(CC)=C3C)cc2)c2ccc(C3=c4c(CC)c(C)c5[n]4[Zn][n]4c(c(CC)c(C)c4C(c4c(C)cc(C)cc4C)=C4N=C3C(CC)=C4C)C=C3N=C(C(C)=C3CC)C=5c3c(C)cc(C)cc3C)cc2)cc1 [(26)]
810 GM | CCC1=C(CC)c2nc1c(Br)c1[nH]c(c(CC)c1CC)c(-c1ccc([N+](=O)[O-])cc1)c1nc(c(-c3ccc4c(c3)C(C)(C)c3cc(-c5c6nc(c(-c7ccc([N+](=O)[O-])cc7)c7[nH]c(c(Br)c8nc(c(-c9ccc([N+](=O)[O-])cc9)c9[nH]c5c(CC)c9CC)C(CC)=C8CC)c(CC)c7CC)C(CC)=C6CC)ccc3-4)c3[nH]c(c(CC)c3CC)c2-c2ccc([N+](=O)[O-])cc2)C(CC)=C1CC [(27)]
820 GM | CCCCCCc1ccc(N(c2ccc(C3=C4N=C(C(C)=C4CC)C(c4c(C)cc(C)cc4C)=c4c(C)c(CC)c5[n]4[Cu][n]4c(c(C)c(CC)c43)C(c3c(C)cc(C)cc3C)=C3N=C(C=5)C(CC)=C3C)cc2)c2ccc(C3=c4c(CC)c(C)c5[n]4[Cu][n]4c(c(CC)c(C)c4C(c4c(C)cc(C)cc4C)=C4N=C3C(CC)=C4C)C=C3N=C(C(C)=C3CC)C=5c3c(C)cc(C)cc3C)cc2)cc1 [(66)]
890 GM | CCCCCCc1ccc(N(c2ccc(C3=C4N=C(C(C)=C4CC)C(c4c(C)cc(C)cc4C)=c4c(C)c(CC)c5[n]4[Pd][n]4c(c(C)c(CC)c43)C(c3c(C)cc(C)cc3C)=C3N=C(C=5)C(CC)=C3C)cc2)c2ccc(C3=c4c(CC)c(C)c5[n]4[Pd][n]4c(c(CC)c(C)c4C(c4c(C)cc(C)cc4C)=C4N=C3C(CC)=C4C)C=C3N=C(C(C)=C3CC)C=5c3c(C)cc(C)cc3C)cc2)cc1 [(64)]
850 GM | CCC1=C(C)c2cc3[nH]c(c(CC)c3C)c(-c3ccc(N(c4ccccc4)c4ccc(-c5c6nc(cc7[nH]c(cc8nc(c(-c9ccc(-c%10ccccn%10)nc9)c9[nH]c5c(CC)c9C)C(C)=C8CC)c(CC)c7C)C(C)=C6CC)cc4)cc3)c3nc(c(-c4ccc(-c5ccccn5)nc4)c4[nH]c(cc1n2)c(CC)c4C)C(C)=C3CC [(55)]
890 GM | CCC1=C(C)c2nc1cc1[nH]c(c(C)c1CC)c(-c1ccccc1C(F)(F)F)c1nc(c(-c3ccc4c(c3)C(C)(C)c3cc(-c5c6nc(c(-c7ccccc7C(F)(F)F)c7[nH]c(cc8nc(c(-c9ccccc9C(F)(F)F)c9[nH]c5c(CC)c9C)C(C)=C8CC)c(CC)c7C)C(C)=C6CC)ccc3-4)c3[nH]c(c(C)c3CC)c2-c2ccccc2C(F)(F)F)C(CC)=C1C [(39)]

SMILES | Two-photon absorption cross-sectional area
COc1ccc(-c2cc(C3=C(c4cc(-c5ccc(OC)cc5)sc4OC)C(F)(F)C(F)(F)C3(F)F)c(OC)s2)cc1 [(74), reference compound] | 15 GM
CCCCCCc1ccc(N(c2ccc(C3=C4C(C(=O)OC)=CC5=[N+]4[Co@]46[n]7c(cc(C(=O)OC)c73)C(c3ccc([N+](=O)[O-])cc3)=C3C=C(C(=O)OC)C(=[N+]34)C=c3c(C(=O)OC)cc([n]36)=C5c3ccc([N+](=O)[O-])cc3)cc2)c2ccc(C3=c4c(C(=O)OC)cc5[n]4[Co@]46[n]7c(cc(C(=O)OC)c7C=C7C(C(=O)OC)=CC(=[N+]74)C=5c4ccc([N+](=O)[O-])cc4)C(c4ccc([N+](=O)[O-])cc4)=C4C=C(C(=O)OC)C3=[N+]46)cc2)cc1 [(36)] | 860 GM
